Tests used:
[1] = test system: Cavia porcellus; experiment: Percentage decrease in bronchodilator activity against serotonin-induced bronchospasm reaction in guinea pig by intraveneous administration at dose 250 ug/kg; assay type: functional
[2] = test system: Cavia porcellus; experiment: Percent decrease in bronchodilator activity against acetylcholine-induced bronchospasm reaction in guinea pig by intraveneous administration at dose 250 ug/kg; assay type: functional
[3] = test system: Rattus norvegicus; experiment: Percent decrease in antiallergic activity by antigen/antibody reaction assay in rat by oral administration at a dose of 10 mg/kg; assay type: functional
[4] = test system: Rattus norvegicus; experiment: Percentage decrease in antiallergic activity against cutaneous reaction to histamine in rat, by oral administration at a dose of 10 mg/kg; assay type: functional
[5] = test system: Rattus norvegicus; experiment: Percent protection against Passive Cutaneous Anaphylaxis in rat after 2.0 hr at dose 100 mg/kg by peroral administration through antigen or antibody reaction; assay type: functional; conditions: route oral
[6] = test system: Rattus norvegicus; experiment: Percent protection against Passive Cutaneous Anaphylaxis in rat after 2.0 hr at dose 100 mg/kg by peroral administration through exogenous histamine reaction; assay type: functional; conditions: route oral
[7] = test system: Rattus norvegicus; experiment: Percent protection against Passive Cutaneous Anaphylaxis in rat after 3.0 hh at dose 100 mg/kg by peroral administration through antigen or antibody reaction; assay type: functional; conditions: route oral
[8] = test system: Rattus norvegicus; experiment: Percent protection against Passive Cutaneous Anaphylaxis in rat after 3.0 hh at dose 100 mg/kg by peroral administration through exogenous histamine reaction; assay type: functional; conditions: route oral
[9] = test system: Rattus norvegicus; experiment: Percent protection against Passive Cutaneous Anaphylaxis in rat after 4.0h at dose 100 mg/kg by peroral administration through antigen or antibody reaction; assay type: functional; conditions: route oral
[10] = test system: Rattus norvegicus; experiment: Percent protection against Passive Cutaneous Anaphylaxis in rat after 4.0h at dose 100 mg/kg by peroral administration through exogenous histamine reaction; assay type: functional; conditions: route oral
[11] = test system: Rattus norvegicus; experiment: Percent protection against Passive Cutaneous Anaphylaxis in rat after 0.25 hr at dose 100 mg/kg by peroral administration through antigen or antibody reaction; assay type: functional; conditions: route oral
[12] = test system: Rattus norvegicus; experiment: Percent protection against Passive Cutaneous Anaphylaxis in rat after 0.25 hr at dose 100 mg/kg by peroral administration through exogenous histamine reaction; assay type: functional; conditions: route oral
[13] = test system: Rattus norvegicus; experiment: Percent protection against Passive Cutaneous Anaphylaxis in rat after 1.0 hr at dose 100 mg/kg by peroral administration through antigen or antibody reaction; assay type: functional; conditions: route oral
[14] = test system: Rattus norvegicus; experiment: Percent protection against Passive Cutaneous Anaphylaxis in rat after 1.0 hr at dose 100 mg/kg by peroral administration through exogenous histamine reaction; assay type: functional; conditions: route oral
[15] = test system: Cavia porcellus; experiment: Percent decrease in bronchodilator activity against histamine-induced bronchospasm reaction in guinea pig by intraveneous administration at dose 10.5 ug/kg
[16] = test system: Cavia porcellus; experiment: Percent decrease in bronchodilator activity against histamine-induced bronchospasm reaction in guinea pig by intraveneous administration at dose 250 ug/kg; assay type: functional
[17] = test system: Cavia porcellus; experiment: Percent decrease in bronchodilator activity against histamine-induced bronchospasm reaction in guinea pig by intraveneous administration at dose 4 mg/kg

| SMILES | Decrease [1] [%] | Decrease [2] [%] | Decrease [3] [%] | Decrease [4] [%] | Protection [5] [%] | Protection [6] [%] | Protection [7] [%] | Protection [8] [%] | Protection [9] [%] | Protection [10] [%] | Protection [11] [%] | Protection [12] [%] | Protection [13] [%] | Protection [14] [%] | Decrease [15] [%] | Decrease [16] [%] | Decrease [17] [%] |
| --- | --- | --- | --- | --- | --- | --- | --- | --- | --- | --- | --- | --- | --- | --- | --- | --- | --- |
| Cn1c(=O)c2c(ncn2CCCN2CCN(CCCSc3ccccc3)CC2)n(C)c1=O | 69 | 23 | 60 | 62 | 45 | 28 | 0 | 0 | 0 | 0 | 98 | 46 | 45 | 23 | 95 | – | – |
| CC(=O)OC(CN1CCN(CCCSc2ccccc2)CC1)Cn1cnc2c1c(=O)n(C)c(=O)n2C (stereo not given) | 29 | 17 | 54 | 62 | – | – | – | – | – | – | – | – | – | – | – | 50 | – |
| Cn1c(=O)c2c(ncn2CN2CCN(CCCSc3ccccc3)CC2)n(C)c1=O | 0 | 0 | 0 | 0 | – | – | – | – | – | – | – | – | – | – | 9 | – | – |
| Cn1cnc2c1c(=O)n(CCCN1CCN(CCCOc3ccccc3)CC1)c(=O)n2C | 47 | 30 | 23 | 0 | – | – | – | – | – | – | – | – | – | – | 28 | – | – |
| CC(CN1c2ccccc2Sc2ccccc21)N(C)C (stereo not given) [PROMETHAZINE] | 0 | 0 | 30 | 58 | – | – | – | – | – | – | – | – | – | – | 40 | – | – |
| Cn1c(=O)c2c(ncn2CC(O)CN2CCN(CCCSc3ccccc3)CC2)n(C)c1=O (stereo not given) [TAZIFYLLINE] | 26 | 23 | 54 | 65 | 82 | 33 | 74 | 52 | 44 | 39 | 100 | 52 | 98 | 49 | 76 | – | – |
| Cn1c(=O)c2nc[nH]c2n(C)c1=O.O [THEOPHYLLINE] | 59 | 72 | 45 | 15 | – | – | – | – | – | – | – | – | – | – | – | – | 56 |
